Source: BigSolDB 2.1

O=c1c2ccccc2sc2ccc(Cl)cc12
Conditions | solubility (mole fraction)
in 1,2-dichloroethane, 291.55 K | 0.0108
in 1,2-dichloroethane, 293.05 K | 0.0114
in 1,2-dichloroethane, 294.95 K | 0.0121
in 1,2-dichloroethane, 297.05 K | 0.0131
in 1,2-dichloroethane, 299.15 K | 0.0139
in 1,2-dichloroethane, 301.25 K | 0.015
in 1,2-dichloroethane, 306.25 K | 0.0173
in 1,2-dichloroethane, 311.35 K | 0.0195
in 1,2-dichloroethane, 316.35 K | 0.022
in 1,2-dichloroethane, 321.45 K | 0.0247
in 1,2-dichloroethane, 326.75 K | 0.0275
in 1,2-dichloroethane, 331.55 K | 0.0307
in 1,4-dioxane, 290.35 K | 0.00155
in 1,4-dioxane, 295.45 K | 0.00263
in 1,4-dioxane, 300.45 K | 0.00398
in 1,4-dioxane, 305.55 K | 0.00552
in 1,4-dioxane, 310.45 K | 0.00703
in 1,4-dioxane, 315.55 K | 0.00882
in 1,4-dioxane, 320.45 K | 0.0105
in 1,4-dioxane, 326.35 K | 0.0128
in 1,4-dioxane, 331.15 K | 0.0145
in 2-butanone, 292.15 K | 0.00488
in 2-butanone, 297.05 K | 0.00587
in 2-butanone, 301.95 K | 0.00695
in 2-butanone, 306.65 K | 0.00834
in 2-butanone, 311.25 K | 0.0101
in 2-butanone, 316.15 K | 0.0119
in 2-butanone, 321.25 K | 0.0145
in 2-butanone, 326.55 K | 0.017
in 2-butanone, 331.55 K | 0.0208
in 2-butanone, 335.95 K | 0.024
in THF, 291.85 K | 0.00658
in THF, 296.95 K | 0.00767
in THF, 302.15 K | 0.00869
in THF, 307.25 K | 0.00967
in THF, 312.25 K | 0.0106
in THF, 317.25 K | 0.0113
in THF, 322.25 K | 0.0118
in THF, 327.55 K | 0.0124
in THF, 332.85 K | 0.0127
in acetone, 289.15 K | 0.00244
in acetone, 294.75 K | 0.00278
in acetone, 299.15 K | 0.00306
in acetone, 303.65 K | 0.00335
in acetone, 309.25 K | 0.00381
in acetone, 313.35 K | 0.00425
in acetone, 319.15 K | 0.00498
in acetone, 323.35 K | 0.00579
in acetone, 329.25 K | 0.00692
in acetonitrile, 289.15 K | 0.000623
in acetonitrile, 294.35 K | 0.000768
in acetonitrile, 299.45 K | 0.00093
in acetonitrile, 305.15 K | 0.00114
in acetonitrile, 309.85 K | 0.00133
in acetonitrile, 315.15 K | 0.0016
in acetonitrile, 319.75 K | 0.0019
in acetonitrile, 324.35 K | 0.00226
in acetonitrile, 329.15 K | 0.00265
in ethanol, 287.55 K | 0.000567
in ethanol, 293.15 K | 0.000679
in ethanol, 298.15 K | 0.000795
in ethanol, 303.15 K | 0.000943
in ethanol, 308.35 K | 0.00122
in ethanol, 313.35 K | 0.0015
in ethanol, 318.15 K | 0.0019
in ethanol, 322.15 K | 0.00229
in ethanol, 327.65 K | 0.00296
in ethyl acetate, 289.15 K | 0.00367
in ethyl acetate, 293.15 K | 0.00419
in ethyl acetate, 298.25 K | 0.00502
in ethyl acetate, 303.45 K | 0.00588
in ethyl acetate, 308.25 K | 0.00683
in ethyl acetate, 313.35 K | 0.00786
in ethyl acetate, 318.45 K | 0.00935
in ethyl acetate, 324.65 K | 0.0112
in ethyl acetate, 330.15 K | 0.0129
in isopropanol, 290.25 K | 0.000547
in isopropanol, 295.15 K | 0.000647
in isopropanol, 300.55 K | 0.000757
in isopropanol, 304.75 K | 0.000906
in isopropanol, 310.25 K | 0.0011
in isopropanol, 314.95 K | 0.00137
in isopropanol, 320.35 K | 0.00179
in isopropanol, 325.65 K | 0.00225
in isopropanol, 331.15 K | 0.00292
in methanol, 292.15 K | 0.000192
in methanol, 297.05 K | 0.000236
in methanol, 301.95 K | 0.000279
in methanol, 306.65 K | 0.00036
in methanol, 311.25 K | 0.000414
in methanol, 316.15 K | 0.000535
in methanol, 321.25 K | 0.000665
in methanol, 326.55 K | 0.000878
in methanol, 331.55 K | 0.00112
in methanol, 335.95 K | 0.00134
in n-propanol, 290.65 K | 0.000647
in n-propanol, 295.25 K | 0.000769
in n-propanol, 300.15 K | 0.000896
in n-propanol, 305.55 K | 0.00106
in n-propanol, 310.65 K | 0.00129
in n-propanol, 315.55 K | 0.00156
in n-propanol, 320.65 K | 0.0019
in n-propanol, 325.55 K | 0.0023
in n-propanol, 331.15 K | 0.00277
in toluene, 289.65 K | 0.00915
in toluene, 295.05 K | 0.0112
in toluene, 300.15 K | 0.0138
in toluene, 305.25 K | 0.0164
in toluene, 310.25 K | 0.0193
in toluene, 315.35 K | 0.023
in toluene, 320.35 K | 0.0276
in toluene, 325.25 K | 0.0321
in toluene, 330.25 K | 0.039
